Reference: US20050191668A1, “Methods of using peroxisome proliferator-activated receptor alpha target genes” (priority 2004, published 2005)

Columns and labels:
Pa21 gene = Pa21 gene expression by real-time RT-PCR in HuH7 hepatocytes; assay type: cell-based, human; conditions: about 20-24 h, vehicle control = 100
Source text: (§1) Human hepatocyte HuH7 cells, which are epithelial cells of liver, were obtained from Japan Health Science Research Resources Bank (Osaka, Japan). Human primary adipocytes, which are connective tissue cells specialized for the synthesis and storage of fat, were obtained from Zen-Bio, Inc (Research Triangle Park, NC). Human primary skeletal muscle cells (SKMC) were obtained from Cambrex Bio Science (Walkersville, Md.). PPARα agonists, Wy14643 (Agatha, et al, 2000, Archives of Biochemistry and Biophysics 380:353-359) and fenofibrates were obtained from Cayman Chemical (Ann Arbor, Mich.) and Sigma (St Louis, Mo.), respectively.
(§2) Human HuH7 cells were cultured in Dulbecco's Modified Eagle Medium with 10% Fetal Bovine Serum (Gibco, N.Y.). Cells were treated with charcoal-stripped, delipidated calf serum (5%) (Sigma, St Louis, Mo.) for about 4-18 hours. Then, cells were treated with different concentrations of PPARα agonist (Wy14643 or fenofibrates) for about 20-24 h. Human SKM cells were cultured in Skeletal Muscle Growth Medium (Cambrex Bio Science, Walkersville, Md.), and were treated with different concentrations of PPARα agonist (Wy14643 or fenofibrates) for about 18-20 hours. Human primary adipocytes were cultured in Preadipocyte Medium, (Cat #PM—1, Zen-Bio, Inc., Research Triangle Park, NC), and were treated with different concentrations of PPARα agonist (Wy14643 or fenofibrates) for about 18-20 hours.
(§3) Total RNA was purified from cultured cells following the protocol provided by the manufacturer (Trizon method, Invitrogen Inc. Ca). The polymerase chain reaction (PCR) primers and fluorescent probes (TagMan probes) for Pa9, Pa13, and Pa21 were designed from GenBank sequences of accession numbers W30988, AB000584, and NM_080725, respectively. The primers and probes were designed using the software PrimerDesign (Applied Biosystems, Foster City, Calif.). The PCR primers for Pa9 were SEQ ID NO: 7, (5-[…]) and SEQ ID NO: 8 (5-[…]). […] The PCR primers for Pa13 were SEQ ID NO: 10 (5-[…], T) and SEQ ID NO: 11 (5-[…] T). […] The PCR primers for Pa21 were SEQ ID NO: 13 (5-[…] C) and SEQ ID NO: 14 (5-[…]). […] All primers and probes were synthesized by Keystone Labs (Camarillo, Calif.).
(§4) Reverse transcription (RT) and PCR were conducted in one step using “One-Step RT-PCR Master Mix Reagent” kit (Applied Biosystems, Foster City, Calif.) in ABI PRISM 7700 Sequence Detection System (Applied Biosystems). Each reaction was performed in a total volume of 25 μl containing 40 ng of total RNA. The reaction condition was: 48° C. for 30 minutes, 60° C. for 30 minutes, 94° C. for 5 minutes, followed by 40 cycles of 94° C. for 20 seconds and 60° C. for 1 minute. The primers for 18S ribosomal RNA were developed and provided by Applied Biosystems. The measurement of human 18S ribosomal RNA was used as an internal control for normalization of measuring and loading errors. PCR data were collected by Ct value (the cycle number at which logarithmic PCR plots cross a calculated threshold line) according to the manufacturer's guidelines and the value was used to determine the Δ^Ct (Ct of the target gene minus the Ct of 18S ribosomal RNA controls). Relative mRNA level was calculated using the equation 2^−ΔΔCt as described previously (Heid et al., 1996, Genome Res. 6:986-994).

Pa9 gene = Pa9 gene expression by real-time RT-PCR in primary skeletal muscle cells; assay type: cell-based, human; conditions: for Pa9 (W38098) gene expression, Percentage ± SE (%): about 18-20 hours, vehicle control = 100; for Pa9 gene expression, Fold of Induction: Veh = 1.00
Source text: as §1, §2, §3, §4
The nucleotide sequence of the human FDRG gene (AX278133) is provided in SEQ ID NO: 1 and the sequence alignment between W30988 and FDRG gene is shown in FIG. 1. […] Quantitative real-time RT-PCR was performed to test whether gene expression of the human FDRG gene is regulated by PPARα.

Pa13 gene = Pa13 gene expression by real-time RT-PCR in primary adipocytes; assay type: cell-based, human; conditions: about 18-20 hours, vehicle control = 100
Source text: as §1, §2, §3, §4

[1] = test system: murine FIAF (fasting induced adipose factor); conditions: PPARα wild type mouse liver cells; cited from earlier work

## Cc1cccc(Nc2cc(Cl)nc(SCC(=O)O)n2)c1C [Wy14643]
Pa21 gene; 3 uM
  Pa21 (H4960) gene expression, Percentage ± SE (%): 145.5 ± 21.9%
Pa21 gene; 10 uM
  Pa21 (H4960) gene expression, Percentage ± SE (%): 163.6 ± 35%
Pa21 gene; 30 uM
  Pa21 (H4960) gene expression, Percentage ± SE (%): 372.7 ± 17.8%
Pa21 gene; 100 uM
  Pa21 (H4960) gene expression, Percentage ± SE (%): 227.3 ± 14.8%
Pa21 gene; 300 uM
  Pa21 (H4960) gene expression, Percentage ± SE (%): 481.8 ± 12.1%
Pa9 gene; 3 uM
  Pa9 (W38098) gene expression, Percentage ± SE (%): 110 ± 24.5%
Pa9 gene; 10 uM
  Pa9 (W38098) gene expression, Percentage ± SE (%): 230 ± 35.7%
Pa9 gene; 30 uM
  Pa9 gene expression, Fold of Induction: 3.64 fold
  Pa9 (W38098) gene expression, Percentage ± SE (%): 870 ± 30%
Pa9 gene; 100 uM
  Pa9 gene expression, Fold of Induction: 6.45 fold
  Pa9 (W38098) gene expression, Percentage ± SE (%): 860 ± 0.9%
Pa9 gene; 300 uM
  Pa9 (W38098) gene expression, Percentage ± SE (%): 610 ± 10.2%
Pa13 gene; 10 uM
  Pa13 (N26311) gene expression, Percentage ± SE (%): 56 ± 10%
Pa13 gene; 50 uM
  Pa13 (N26311) gene expression, Percentage ± SE (%): 55 ± 2%
Pa13 gene; 250 uM
  Pa13 (N26311) gene expression, Percentage ± SE (%): 214 ± 7.9%
[1]
  expression of murine FIAF: increased
